# ChEMBL document CHEMBL5291721, “A preclinical secondary pharmacology resource illuminates target-adverse drug reaction associations of marketed drugs” (Nat Commun, 2023)
# Key:
# [1] = biological target: Bile salt export pump (Homo sapiens, UniProt O95342); type: functional
# [2] = biological target: T1, Adenosine receptor A1 (Homo sapiens, UniProt P30542)
# T1 sequence (P30542 whole entry): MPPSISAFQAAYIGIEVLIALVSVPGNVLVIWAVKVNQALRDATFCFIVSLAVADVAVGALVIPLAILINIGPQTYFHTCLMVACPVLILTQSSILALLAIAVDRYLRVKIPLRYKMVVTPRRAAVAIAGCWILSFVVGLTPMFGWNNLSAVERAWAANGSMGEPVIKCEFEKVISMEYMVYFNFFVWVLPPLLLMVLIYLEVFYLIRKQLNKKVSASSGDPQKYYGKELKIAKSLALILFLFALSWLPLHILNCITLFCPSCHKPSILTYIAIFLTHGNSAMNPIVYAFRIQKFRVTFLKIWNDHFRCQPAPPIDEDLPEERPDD
# [3] = biological target: Adenosine receptor A2a (Homo sapiens, UniProt P29274)
# [4] = biological target: T2, Adenosine receptor A3 (Homo sapiens, UniProt P0DMS8)
# T2 sequence (P0DMS8 whole entry): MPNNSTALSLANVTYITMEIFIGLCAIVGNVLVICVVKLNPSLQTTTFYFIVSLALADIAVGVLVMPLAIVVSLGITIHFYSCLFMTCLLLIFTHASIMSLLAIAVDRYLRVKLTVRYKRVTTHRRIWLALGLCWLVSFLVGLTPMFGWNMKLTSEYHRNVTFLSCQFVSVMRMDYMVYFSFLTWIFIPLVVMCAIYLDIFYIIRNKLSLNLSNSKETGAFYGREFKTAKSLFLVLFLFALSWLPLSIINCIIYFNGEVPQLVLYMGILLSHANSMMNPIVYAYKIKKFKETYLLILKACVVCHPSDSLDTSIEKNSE
# [5] = biological target: T3, Alpha-2A adrenergic receptor (Homo sapiens, UniProt P08913); type: functional, cell-based
# T3 sequence (P08913 whole entry): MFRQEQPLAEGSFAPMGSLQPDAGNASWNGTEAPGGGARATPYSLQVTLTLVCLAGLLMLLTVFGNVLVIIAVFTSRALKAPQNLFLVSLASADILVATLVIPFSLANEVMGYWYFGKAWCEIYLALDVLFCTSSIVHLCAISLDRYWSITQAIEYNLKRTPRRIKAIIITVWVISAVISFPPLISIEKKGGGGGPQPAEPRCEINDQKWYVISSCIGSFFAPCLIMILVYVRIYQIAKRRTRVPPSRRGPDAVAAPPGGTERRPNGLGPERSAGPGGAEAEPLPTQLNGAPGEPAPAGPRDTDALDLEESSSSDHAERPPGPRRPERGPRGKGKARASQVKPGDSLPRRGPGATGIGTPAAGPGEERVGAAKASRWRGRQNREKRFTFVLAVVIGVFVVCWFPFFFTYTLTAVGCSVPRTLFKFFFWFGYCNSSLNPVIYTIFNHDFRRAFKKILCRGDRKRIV
# [6] = biological target: T4, Type-1 angiotensin II receptor (Homo sapiens, UniProt P30556)
# T4 sequence (P30556 whole entry): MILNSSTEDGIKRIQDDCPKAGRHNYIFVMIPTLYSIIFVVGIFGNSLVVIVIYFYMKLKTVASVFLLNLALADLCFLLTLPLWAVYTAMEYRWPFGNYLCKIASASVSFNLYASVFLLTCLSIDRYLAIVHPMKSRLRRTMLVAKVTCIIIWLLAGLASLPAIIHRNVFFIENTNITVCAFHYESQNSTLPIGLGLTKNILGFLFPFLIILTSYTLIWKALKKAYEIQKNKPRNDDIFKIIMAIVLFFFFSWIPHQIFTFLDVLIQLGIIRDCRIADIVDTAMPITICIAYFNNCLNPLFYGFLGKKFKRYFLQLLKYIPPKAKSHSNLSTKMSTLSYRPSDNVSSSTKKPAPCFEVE
# [7] = biological target: D(1A) dopamine receptor (Homo sapiens, UniProt P21728); type: functional, cell-based
# [8] = biological target: Growth hormone secretagogue receptor type 1 (Homo sapiens, UniProt Q92847)
# [9] = biological target: T5, 5-hydroxytryptamine receptor 1A (Homo sapiens, UniProt P08908); type: functional, cell-based
# T5 sequence (P08908 whole entry): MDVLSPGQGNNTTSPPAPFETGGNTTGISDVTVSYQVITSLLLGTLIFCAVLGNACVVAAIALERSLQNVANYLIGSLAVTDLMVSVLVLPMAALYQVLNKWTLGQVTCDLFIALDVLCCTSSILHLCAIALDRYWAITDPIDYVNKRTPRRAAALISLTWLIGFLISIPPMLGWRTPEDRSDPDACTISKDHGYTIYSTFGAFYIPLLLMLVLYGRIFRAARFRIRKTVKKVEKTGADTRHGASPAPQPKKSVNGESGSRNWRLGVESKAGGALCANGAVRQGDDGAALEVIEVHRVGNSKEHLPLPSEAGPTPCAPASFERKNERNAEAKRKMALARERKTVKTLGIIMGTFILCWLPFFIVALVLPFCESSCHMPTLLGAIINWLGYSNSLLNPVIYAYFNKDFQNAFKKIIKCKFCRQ
# [10] = biological target: 5-hydroxytryptamine receptor 2B (Homo sapiens, UniProt P41595); type: functional, cell-based
# [11] = biological target: T6, 5-hydroxytryptamine receptor 3A (Homo sapiens, UniProt P46098); type: functional
# T6 sequence (P46098 whole entry): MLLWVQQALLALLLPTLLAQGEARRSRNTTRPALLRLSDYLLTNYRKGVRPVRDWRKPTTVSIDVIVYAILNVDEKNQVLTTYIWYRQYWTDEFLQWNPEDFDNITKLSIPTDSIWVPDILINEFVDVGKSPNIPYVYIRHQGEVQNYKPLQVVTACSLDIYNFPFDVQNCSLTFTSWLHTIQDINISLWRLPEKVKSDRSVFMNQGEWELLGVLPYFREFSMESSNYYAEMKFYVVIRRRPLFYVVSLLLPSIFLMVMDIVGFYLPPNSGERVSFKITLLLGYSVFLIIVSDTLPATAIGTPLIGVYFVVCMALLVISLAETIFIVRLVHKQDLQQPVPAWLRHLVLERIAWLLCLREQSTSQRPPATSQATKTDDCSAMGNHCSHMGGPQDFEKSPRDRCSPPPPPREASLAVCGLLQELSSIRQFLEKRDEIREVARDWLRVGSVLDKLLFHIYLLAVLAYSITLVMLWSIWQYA
# [12] = biological target: Voltage-gated inwardly rectifying potassium channel KCNH2 (Homo sapiens, UniProt Q12809); type: functional; details: read-out: AC50
# [13] = biological target: Melanocortin receptor 3 (Homo sapiens, UniProt P41968)
# [14] = biological target: 3',5'-cyclic-AMP phosphodiesterase 4D (Homo sapiens, UniProt Q08499); type: functional
# Also: assay procedure not described here.
# Growth hormone secretagogue receptor type 1, sequence (Q92847 whole entry): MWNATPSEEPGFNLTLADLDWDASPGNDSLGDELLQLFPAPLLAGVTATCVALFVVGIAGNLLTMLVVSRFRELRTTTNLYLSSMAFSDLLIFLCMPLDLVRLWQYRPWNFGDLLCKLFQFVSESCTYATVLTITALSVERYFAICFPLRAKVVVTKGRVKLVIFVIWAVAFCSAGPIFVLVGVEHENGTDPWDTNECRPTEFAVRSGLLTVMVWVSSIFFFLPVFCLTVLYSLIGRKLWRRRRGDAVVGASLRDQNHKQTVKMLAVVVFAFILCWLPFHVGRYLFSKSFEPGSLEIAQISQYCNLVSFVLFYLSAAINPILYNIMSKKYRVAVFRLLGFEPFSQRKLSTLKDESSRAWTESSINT
# Adenosine receptor A2a, sequence (P29274 whole entry): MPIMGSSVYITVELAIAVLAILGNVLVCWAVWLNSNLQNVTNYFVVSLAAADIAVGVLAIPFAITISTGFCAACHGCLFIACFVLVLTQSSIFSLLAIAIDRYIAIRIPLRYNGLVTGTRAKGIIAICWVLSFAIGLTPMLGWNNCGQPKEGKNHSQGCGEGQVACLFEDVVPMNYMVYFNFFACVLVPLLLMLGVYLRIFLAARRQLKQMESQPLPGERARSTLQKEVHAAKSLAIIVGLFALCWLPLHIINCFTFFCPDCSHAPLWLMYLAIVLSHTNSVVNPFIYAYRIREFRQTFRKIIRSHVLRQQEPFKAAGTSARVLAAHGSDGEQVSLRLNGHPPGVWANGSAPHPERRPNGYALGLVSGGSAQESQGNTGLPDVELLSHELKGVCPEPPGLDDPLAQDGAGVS
# Voltage-gated inwardly rectifying potassium channel KCNH2, sequence (Q12809 whole entry): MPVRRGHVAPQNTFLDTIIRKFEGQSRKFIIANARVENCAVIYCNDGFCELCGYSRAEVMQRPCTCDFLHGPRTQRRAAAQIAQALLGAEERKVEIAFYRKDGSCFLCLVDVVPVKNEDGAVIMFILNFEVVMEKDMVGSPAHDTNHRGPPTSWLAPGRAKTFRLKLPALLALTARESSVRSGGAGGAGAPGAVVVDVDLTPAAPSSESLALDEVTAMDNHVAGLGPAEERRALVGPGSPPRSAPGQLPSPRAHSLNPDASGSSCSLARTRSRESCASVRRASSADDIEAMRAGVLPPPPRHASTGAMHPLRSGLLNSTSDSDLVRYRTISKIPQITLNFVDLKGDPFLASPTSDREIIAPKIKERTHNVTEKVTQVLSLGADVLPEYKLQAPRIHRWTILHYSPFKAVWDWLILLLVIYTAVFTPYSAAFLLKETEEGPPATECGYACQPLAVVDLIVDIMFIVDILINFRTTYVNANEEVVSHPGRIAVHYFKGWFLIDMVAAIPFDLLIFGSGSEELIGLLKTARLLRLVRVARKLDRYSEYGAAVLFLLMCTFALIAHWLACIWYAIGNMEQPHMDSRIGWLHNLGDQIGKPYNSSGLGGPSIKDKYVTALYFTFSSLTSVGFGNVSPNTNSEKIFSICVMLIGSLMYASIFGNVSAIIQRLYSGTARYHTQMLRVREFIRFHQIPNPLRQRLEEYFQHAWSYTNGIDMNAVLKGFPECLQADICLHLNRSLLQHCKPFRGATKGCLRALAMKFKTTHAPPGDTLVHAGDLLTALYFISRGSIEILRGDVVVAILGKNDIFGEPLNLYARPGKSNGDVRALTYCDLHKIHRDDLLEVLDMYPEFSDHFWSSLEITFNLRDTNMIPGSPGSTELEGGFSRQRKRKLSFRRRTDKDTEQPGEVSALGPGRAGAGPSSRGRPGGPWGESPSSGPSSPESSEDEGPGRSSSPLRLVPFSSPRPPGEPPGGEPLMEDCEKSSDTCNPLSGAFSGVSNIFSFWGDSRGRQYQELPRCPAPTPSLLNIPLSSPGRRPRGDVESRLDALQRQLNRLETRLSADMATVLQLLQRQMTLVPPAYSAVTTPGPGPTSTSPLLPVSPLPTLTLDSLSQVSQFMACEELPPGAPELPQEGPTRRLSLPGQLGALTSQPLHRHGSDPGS
# 3',5'-cyclic-AMP phosphodiesterase 4D, sequence (Q08499 whole entry): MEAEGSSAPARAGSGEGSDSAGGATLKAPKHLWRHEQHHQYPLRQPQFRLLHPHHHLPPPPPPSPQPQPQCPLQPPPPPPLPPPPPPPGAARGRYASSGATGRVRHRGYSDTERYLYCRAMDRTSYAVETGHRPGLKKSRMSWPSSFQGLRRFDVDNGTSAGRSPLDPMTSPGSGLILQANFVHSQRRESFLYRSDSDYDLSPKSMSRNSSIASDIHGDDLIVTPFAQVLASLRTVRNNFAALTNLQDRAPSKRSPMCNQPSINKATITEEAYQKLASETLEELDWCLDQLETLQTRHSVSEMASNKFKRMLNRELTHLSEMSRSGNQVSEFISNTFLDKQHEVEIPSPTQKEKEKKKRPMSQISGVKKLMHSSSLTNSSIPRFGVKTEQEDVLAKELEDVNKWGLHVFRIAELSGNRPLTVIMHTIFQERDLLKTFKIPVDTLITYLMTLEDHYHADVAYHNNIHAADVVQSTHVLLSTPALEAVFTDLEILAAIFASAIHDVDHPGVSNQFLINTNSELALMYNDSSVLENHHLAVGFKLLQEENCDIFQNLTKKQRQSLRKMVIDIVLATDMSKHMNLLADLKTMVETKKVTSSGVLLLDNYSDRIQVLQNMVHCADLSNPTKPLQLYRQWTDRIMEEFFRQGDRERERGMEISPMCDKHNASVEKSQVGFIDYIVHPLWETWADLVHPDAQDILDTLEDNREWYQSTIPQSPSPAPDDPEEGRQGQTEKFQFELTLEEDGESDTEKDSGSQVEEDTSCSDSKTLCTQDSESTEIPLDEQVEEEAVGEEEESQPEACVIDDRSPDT
# D(1A) dopamine receptor, sequence (P21728 whole entry): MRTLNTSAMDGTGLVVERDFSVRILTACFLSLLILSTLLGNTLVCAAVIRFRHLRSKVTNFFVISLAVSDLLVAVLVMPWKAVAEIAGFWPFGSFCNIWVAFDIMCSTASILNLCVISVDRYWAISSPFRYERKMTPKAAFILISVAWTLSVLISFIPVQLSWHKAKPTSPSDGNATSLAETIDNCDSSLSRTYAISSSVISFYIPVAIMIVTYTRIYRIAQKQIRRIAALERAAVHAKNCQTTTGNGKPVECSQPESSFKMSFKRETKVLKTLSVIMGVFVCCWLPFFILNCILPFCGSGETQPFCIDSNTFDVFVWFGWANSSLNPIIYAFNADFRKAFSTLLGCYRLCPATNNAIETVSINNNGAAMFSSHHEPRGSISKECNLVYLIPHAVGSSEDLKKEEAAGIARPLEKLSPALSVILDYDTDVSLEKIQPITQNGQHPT
# 5-hydroxytryptamine receptor 2B, sequence (P41595 whole entry): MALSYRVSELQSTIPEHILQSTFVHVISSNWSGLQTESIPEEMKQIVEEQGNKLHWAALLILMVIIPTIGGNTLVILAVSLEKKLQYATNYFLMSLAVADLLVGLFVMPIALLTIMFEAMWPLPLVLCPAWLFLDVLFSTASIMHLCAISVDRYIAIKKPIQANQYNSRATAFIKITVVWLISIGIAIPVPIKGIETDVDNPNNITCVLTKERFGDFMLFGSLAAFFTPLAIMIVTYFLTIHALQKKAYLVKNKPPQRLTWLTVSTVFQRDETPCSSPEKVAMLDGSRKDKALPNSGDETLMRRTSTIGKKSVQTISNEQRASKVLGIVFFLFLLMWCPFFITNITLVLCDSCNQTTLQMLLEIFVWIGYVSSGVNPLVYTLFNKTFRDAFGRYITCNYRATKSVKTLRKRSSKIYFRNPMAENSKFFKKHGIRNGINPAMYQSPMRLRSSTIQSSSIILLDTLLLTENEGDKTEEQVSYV
# Melanocortin receptor 3, sequence (P41968 whole entry): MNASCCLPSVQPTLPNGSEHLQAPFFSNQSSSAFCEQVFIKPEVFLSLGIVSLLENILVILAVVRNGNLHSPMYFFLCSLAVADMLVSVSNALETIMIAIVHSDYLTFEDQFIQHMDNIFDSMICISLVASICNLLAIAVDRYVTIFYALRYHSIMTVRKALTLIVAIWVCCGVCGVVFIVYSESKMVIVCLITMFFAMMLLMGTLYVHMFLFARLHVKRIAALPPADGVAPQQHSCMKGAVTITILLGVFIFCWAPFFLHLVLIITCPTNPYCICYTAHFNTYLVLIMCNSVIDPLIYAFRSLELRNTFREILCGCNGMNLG
Structure (SMILES),AC50 [1],AC50 [2],AC50 [3],AC50 [4],AC50 [5],AC50 [6],AC50 [7],AC50 [8],AC50 [9],AC50 [10],AC50 [11],AC50 [13],AC50 [14],AC50 [12]
c1cnc2cc3c(cc2n1)[C@@H]1CNC[C@H]3C1 [VARENICLINE],> 300 µM,> 30 µM,> 30 µM,> 30 µM,> 30 µM,> 30 µM,> 30 µM,> 30 µM,> 30 µM,> 30 µM,13 µM,> 30 µM,> 30 µM,> 30 µM
C[C@@H](O)[C@H]1C(=O)N2C(C(=O)O)=C(SCCN=CN)C[C@H]12 [IMIPENEM ANHYDROUS],> 300 µM,> 300 µM,> 300 µM,180 µM,> 300 µM,> 300 µM,> 300 µM,> 300 µM,> 300 µM,> 300 µM,> 300 µM,> 300 µM,> 300 µM,> 30 µM

# Second part, led by results:
AC50 [1],AC50 [2],AC50 [3],AC50 [4],AC50 [5],AC50 [6],AC50 [7],AC50 [8],AC50 [9],AC50 [10],AC50 [11],AC50 [13],AC50 [14],Structure (SMILES),AC50 [12]
> 300 µM,> 30 µM,> 30 µM,> 30 µM,> 30 µM,> 30 µM,> 30 µM,> 30 µM,> 30 µM,> 30 µM,> 30 µM,> 30 µM,> 30 µM,C[C@H](Cn1cnc2c(N)ncnc21)OCP(=O)(O)O [TENOFOVIR ANHYDROUS],> 30 µM
> 300 µM,> 30 µM,> 30 µM,> 30 µM,> 30 µM,> 30 µM,> 30 µM,> 30 µM,> 30 µM,> 30 µM,> 30 µM,> 30 µM,> 30 µM,COC(=O)CCc1ccc(OCC(O)CNC(C)C)cc1 (stereo not given) [ESMOLOL],> 30 µM
> 300 µM,> 10 µM,> 10 µM,> 10 µM,> 10 µM,> 10 µM,> 10 µM,> 10 µM,> 10 µM,> 10 µM,> 30 µM,> 10 µM,> 30 µM,NCCCCCC(=O)O [AMINOCAPROIC ACID],> 30 µM
